Results: US4003945A, “Novel cyclopropanecarboxylates” (Sumitomo Chemical Company, Limited, priority 1973, dated 1977)
Converted amounts (≈) assume the structure as drawn.

Test system: housefly adults
Experiment: Oil spray, Campbel's turn table, lethal concentration (Test Example 2)
Type: in vivo
Conditions: Musca domestica, 24 h
Procedure: A group of about 100 housefly adults was exposed to descending spray for 10 minutes, thereafter was transferred to an observation cage, was fed, and was allowed to stand at room temperature.
After a day, the dead and alive were counted to calculate the lethal ratio.

Row | SMILES | LC50
1 | C#CC(OC(=O)C1C(C=C(Cl)Cl)C1(C)C)C(C)=CCCC=C (stereo not shown) [Compound 129, 1-Ethynyl-2-methyl-2,6-heptadien-1-yl 2',2'-dimethyl-3'-(2",2"-dichlorovinyl)-cyclopropane-carboxylate] | 230 µg/mL (≈ 674 µM)
2 | C#CC(OC(=O)C1C(C=C(Cl)Cl)C1(C)C)C(C)=CC (stereo not shown) [Compound 130, 1-Ethynyl-2-methyl-2-butenyl 2',2'-dimethyl-3'-2',2"-dichlorovinyl-cyclopropanecarboxylate] | 1500 µg/mL (≈ 4980 µM)
3 | C#CC(OC(=O)C1C(C=C(C)C)C1(C)C)C(C)=CCC=C (stereo not shown) [Compound 29, 1-Ethynyl-2-methyl-2,5-hexadienyl chrysanthemate] | 900 µg/mL (≈ 3140 µM)
4 | C#CC(OC(=O)C1C(C=C(C)C)C1(C)C)C(=CCCC)CC (stereo not shown) [Compound 5, 1-Ethynyl-2-ethyl-2-hexenyl chrysanthemate] | 2400 µg/mL (≈ 7930 µM)
5 | C#CC(OC(=O)C1C(C=C(Cl)Cl)C1(C)C)C(C)=CCC=C (stereo not shown) [Compound 127, 1-Ethynyl-2-methyl-2,5-hexadien-1-yl 2',2'-dimethyl-3'-(2",2"-di-chlorovinyl)-cyclopropane-carboxylate] | 250 µg/mL (≈ 764 µM)
6 | C#CC(OC(=O)C1C(C=C(Cl)Cl)C1(C)C)/C(C)=C/CC (stereo not shown) [Compound 126, 1-Ethynyl-2-methyl-2-pentenyl 2',2'-dimethyl-3'-(2",2"-dichlorovinyl)-yclopropanecarboxylate] | 300 µg/mL (≈ 952 µM)
7 | C=CCC1=C(C)C(OC(=O)C2C(C=C(C)C)C2(C)C)CC1=O (stereo not shown) [Allethrin, reference compound] | 3500 µg/mL (≈ 11600 µM)
8 | C#CC(OC(=O)C1C(C=C(C)C)C1(C)C)C(C)=CCCC=C (stereo not shown) [Compound 128, 1-Ethynyl-2-methyl-2,6-heptadien-1-yl-chrysanthemate] | 900 µg/mL (≈ 3000 µM)

Same assay, conditions: Musca domestica, 24 h; Table 3a; oil spray 5 ml, 10 minutes exposure, counted after a day; read-out: LC50

Row | SMILES | LC50
9 | C#CC(C#CCOC)OC(=O)C1C(C=C(C)C)C1(C)C (stereo not shown) [Compound 68, 1-Ethynyl-4-methoxy-2-butyn-1-yl chrysanthemate] | 4000 µg/mL (≈ 14600 µM)
10 | C#CC(C=CC1C=CCC1)OC(=O)C1C(C=C(C)C)C1(C)C (stereo not shown) [Compound 102, 1-Ethynyl-3-(2'-cyclopentenyl)-allyl chrysanthemate] | 600 µg/mL (≈ 2010 µM)
11 | C#CC(C#CCOC)OC(=O)C1C(C=C(Cl)Cl)C1(C)C (stereo not shown) [Compound 142, 1-Ethynyl-4-methoxy-2-butyn-1-yl 2',2'-dimethyl-3'-(2",2"- dichlorovinyl)-cyclopropane-carboxylate] | 1200 µg/mL (≈ 3810 µM)
12 | C#CC(C#CCOc1ccccc1)OC(=O)C1C(C=C(C)C)C1(C)C (stereo not shown) [Compound 79, 1-Ethynyl-4-phenoxy-2-butyn-1-yl chrysanthemate] | 830 µg/mL (≈ 2470 µM)
13 | C#CC(C#CCC=C)OC(=O)C1C(C=C(Cl)Cl)C1(C)C (stereo not shown) [Compound 143, 1-Ethynyl-4-vinyl-2-butyn-1-yl 2',2'-dimethyl-340-(2",2"-dichloro-vinyl)-cyclopropanecarboxylate] | 820 µg/mL (≈ 2630 µM)
14 | C#CC(C#CCC=C)OC(=O)C1C(C=C(C)C)C1(C)C (stereo not shown) [Compound 71, 1-Ethynylhexa-2-yn-5-en-1-yl chrysanthemate] | 2900 µg/mL (≈ 10700 µM)
15 | C#CC(OC(=O)C1C(C=C2CCCC2)C1(C)C)C(C)=CCC1=CCCC1 (stereo not shown) [Compound 111, 1-Ethynyl-2-methyl-4-(1'-cyclopentenyl)-2-butenyl 2",2"- dimethyl-3"-cyclopentylidene-methylcyclopropanecarboxylate] | 410 µg/mL (≈ 1160 µM)
16 | C#CC(C#CCOc1ccccc1)OC(=O)C1C(C=C(Cl)Cl)C1(C)C (stereo not shown) [Compound 144, 1-Ethynyl-4-phenoxy-2-butyn-1-yl 2',2'-dimethyl-3'-(2",2"-dichlorovinyl)-cyclopropanecarboxylate] | 290 µg/mL (≈ 769 µM)
17 | C#CC(OC(=O)C1C(C=C(C)C)C1(C)C)C(=CC1=CCCC1)CC (stereo not shown) [Compound 109, 1-Ethynyl-2-ethyl-3-(1'-cyclopentenyl)allyl chrysanthemate] | 340 µg/mL (≈ 1040 µM)

Test system: 3rd or 4th instar larvae of tobacco cut worm
Experiment: Diluted emulsion sprayed by settling tower on larvae (Example X)
Type: in vivo
Conditions: emulsion diluted to 50 times, 1 ml
Procedure: Ten of the 3rd or 4th instar larvae of tobacco cut worm were put into a petri dish of 17 cm in diameter.
One ml of the present compound (4, 11, 28, 92, 94, 95, 109, 111) in form of an emulsion obtained in Example X, which were diluted to 50 times with water, were sprayed by means of a settling tower. The said larvae were removed into another petri dish with the leaves of the chinese cabbage leaves. Observation was made after 48 hrs. As a result, more than 90% of the larvae were dead in each case.

Row | SMILES | larvae dead after 48 hrs
18 | C#CC(OC(=O)C1C(C)(C)C1(C)C)C(C)=CC (stereo not shown) [Compound 11, 1-Ethynyl-2-methyl-2-butenyl 2',2',3',3'-tetramethylcyclo-propanecarboxylate] | more than 90%
19 | C#CC(C#CCC=C)OC(=O)C1C(C=C2CCCC2)C1(C)C (stereo not shown) [Compound 94, 1-Ethynylhexa-2-yn-5-en-1-yl 2',2'-dimethyl-3-'-cyclopentylidene-methylcyclopropanecarboxylate] | more than 90%
20 | C#CC(OC(=O)C1C(C=C2CCCC2)C1(C)C)C(C)=CCC (stereo not shown) [Compound 28, 1-Ethynyl-2-methyl-2-pentenyl 2',2'-dimethyl-3'-cyclopentylidene-methylcyclopropanecarboxylate] | more than 90%
21 | C#CC(C#CCC=C)OC(=O)C1C(C=C(Cl)Cl)C1(C)C (stereo not shown) [Compound 95, 1-Ethynylhexa-2-yn-5-en-1-yl 2',2'-dimethyl-3'-(2",2"- dichlorovinyl)cyclopropane-carboxylate] | more than 90%
22 | C#CC(C#CCC=C)OC(=O)C1C(C=CC=C)C1(C)C (stereo not shown) [Compound 92, 1-Ethynylhexa-2-yn-5-en-1-yl 2',2'-dimethyl-3'-(1",3"- butadienyl)cyclopropane-carboxylate] | more than 90%
23 | C#CC(OC(=O)C1C(C=C2CCCC2)C1(C)C)C(C)=CCC1=CCCC1 (stereo not shown) [Compound 111, 1-Ethynyl-2-methyl-4-(1'-cyclopentenyl)-2-butenyl 2",2"- dimethyl-3"-cyclopentylidene-methylcyclopropanecarboxylate] | more than 90%
24 | C#CC(OC(=O)C1C(C=C(C)C)C1(C)C)C(=CC1=CCCC1)CC (stereo not shown) [Compound 109, 1-Ethynyl-2-ethyl-3-(1'-cyclopentenyl)allyl chrysanthemate] | more than 90%

Test system: adult planthoppers
Experiment: Residual effect on sprayed rice seedlings (Example XV)
Type: in vivo
Conditions: concentrate diluted to 400 times; observed 24 hours after release
Procedure: About 20 rice seedlings, cultivated for 20 days after sowing in a flower pot of 8.5 cm in diameter, were sprayed with each of the emulsifiable concentrates obtained as in Example X which were diluted to 400 times with water. After air-drying, each pot was covered with a wire cage, into which 20 adult planthoppers were released as time elapsed. And the observation was made after 24 hours.

Row | SMILES | Mortality (%) After 1 day | Mortality (%) After 6 days
25 | C#CC(OC(=O)C1C(C=C2CCCC2)C1(C)C)C(C)=Cc1ccccc1 (stereo not shown) [Compound 40] | 100% | 66.7%
26 | CNC(=O)Oc1ccc(C)c(C)c1 [Meobal, 3,4-Dimethylphenyl-N-methylcarbamate, reference compound] | 100% | 40.0%
27 | C#CC(OC(=O)C1C(C)(C)C1(C)C)C(C)=Cc1ccccc1 (stereo not drawn) [Compound 39, α-Ethynyl-β-methylcinnamyl 2,2,3,3-tetramethyl-cyclopropanecarboxylate] | 100% | 85.0%

Test system: leafhoppers of resistant and susceptible strains
Experiment: Emulsion sprayed on rice seedlings, leafhoppers released (Example XVI)
Type: in vivo, leafhopper
Conditions: emulsion diluted to 50 times
Procedure: About 20 rice seedlings, cultivated for 20 days after sowing in a flower pot of 8.5 cm in diameter were sprayed with each of the present compounds (31, 32, 35, 39, 40, 42, 45, 48, 55, 59, 60, 63, 131 - 134, 139) in the form of an emulsion which were diluted to 50 times. Each pot was put into the beaker and covered with gauze, into which leafhoppers of resistant and susceptible strains, respectively, were released in each beaker. And the number of knocked down insects after 1 hour and the mortality after 24 hours were counted. As a result, the knock down per centage was more than 50% and the mortality was more than 80% in each case.

Row | SMILES | knock down percentage after 1 hour | mortality after 24 hours
28 | C#CC(OC(=O)C1C(C=C2CCCC2)C1(C)C)C(C)=Cc1ccccc1 (stereo not shown) [Compound 40] | more than 50% | more than 80%
29 | C#CC(OC(=O)C1(C)C(C=C2CCCC2)C1(C)C)C(C)=Cc1ccccc1C (stereo not drawn) [Compound 55, α-Ethynyl-β-methyl-2-methyl-cinnamyl 1',2',2'-trimethyl-3'-cyclopentylidenemethyl-cyclopropanecarboxylate] | more than 50% | more than 80%
30 | C#CC(OC(=O)C1C(C=C(C)C=C)C1(C)C)C(C)=Cc1ccc(C#N)cc1 (stereo not drawn) [Compound 45, α-Ethynyl-β-methyl-4-cyano-cinnamyl 2',2'-dimethyl-3'-(2"-methyl-1",3"-butadienyl)-cyclopropanecarboxylate] | more than 50% | more than 80%
31 | C#CC(OC(=O)C1C(C=C(Cl)Cl)C1(C)C)C(C)=Cc1ccccc1 (stereo not drawn) [Compound 59, α-Ethynyl-β-methylcinnamyl 2,2-dimethyl-3-(2',2'-dichloro-vinyl)cyclopropanecarboxylate] | more than 50% | more than 80%
32 | C#CC(OC(=O)C1C(C)C1(C)C)C(=Cc1ccc(OCC)cc1)CC (stereo not drawn) [Compound 42, α-Ethynyl-β-ethyl-4-ethoxy-cinnamyl 2',2',3'-trimethyl-cyclopropanecarboxylate] | more than 50% | more than 80%
33 | C#CC(C=Cc1ccco1)OC(=O)C1C(C=C(C)C)C1(C)C (stereo not drawn) [Compound 60, α-Ethynyl-γ-(2-furyl)-allyl chrysanthemate] | more than 50% | more than 80%
34 | C#CC(OC(=O)C1C(C)(C)C1(C)C)C(=Cc1ccccc1)C(C)C (stereo not drawn) [Compound 48, α-Ethynyl-β-isopropylcinnamyl 2,2,3,3-tetramethylcyclopropane-carboxylate] | more than 50% | more than 80%
35 | C#CC(OC(=O)C1C(C)(C)C1(C)C)C(C)=Cc1ccccc1 (stereo not drawn) [Compound 39, α-Ethynyl-β-methylcinnamyl 2,2,3,3-tetramethyl-cyclopropanecarboxylate] | more than 50% | more than 80%

Test system: adults of houseflies
Experiment: Oil preparation sprayed on Campbell's turn table (Example XX)
Type: in vivo, housefly
Conditions: Musca domestica, 24 h; Table 6; 1% oil preparation 5 ml, 10 minutes exposure, next day
Procedure: The oil preparation obtained as in Example B (5 ml) was sprayed by the use of a Campbell's turn table [Soap & Sanitary Chemicals, Vol. 14, No. 6, 119 (1938) ] on 100 adults of houseflies were exposed to the spray for 10 minutes. The houseflies were then allowed to stand with feeding. On the next day, dead and alive were observed.

Row | SMILES | mortality at 1 %
36 | C#CC(C=C(c1ccccc1)c1ccccc1)OC(=O)C1C(C=C(Cl)Cl)C1(C)C (stereo not shown) [Compound 138] | 100%
37 | C#CC(OC(=O)C1C(C=C(Cl)Cl)C1(C)C)C(C)=Cc1ccc(C#N)cc1 (stereo not shown) [Compound 137] | 100%
38 | C#CC(OC(=O)C1C(C=C(Cl)Cl)C1(C)C)C(C)=Cc1c(C)cc(OC)cc1C (stereo not drawn) [Compound 136, α-Ethynyl-β-methyl-2,6- -dimethyl-4-methoxy cinnamyl 2',2'-dimethyl-3'2"-2"- dichlorovinyl)-cyclopropane-carboxylate] | 90%
